What all share (assay type): cell-based
Assay [1] deals with S. aureus ATCC 29213 (NB01001). Kind of assay: MIC, broth microdilution (CLSI). The conditions noted are these: Staphylococcus aureus, ATCC29213; S. aureus ATCC 29213; 35° C., 20 hours; read-out: Antibacterial activity (MIC) NB01001. For orientation: In broth dilution the organism is exposed to a series of concentrations in liquid medium.
The test system of assay [2] is E. coli NB27177 (efflux deficient CGSC 11430, ΔtolC732::kan). The assay is described as follows: microbe, parasite or virus in culture. The conditions noted are these: Escherichia coli, 20 h, read-out: Antibacterial activity (MIC) NB27177.
Assay [3] has as its system P. aeruginosa NB52023-CDK0006 (gyrA T83I, parC S87L). The assay is described as follows: microbe, parasite or virus in culture. The conditions noted are these: Pseudomonas aeruginosa, 20 h, read-out: Antibacterial activity (MIC) NB52023-CDK0006.
Assay [4] concerns P. aeruginosa NB52019 (wild-type PAO1). The assay is described as follows: MIC, broth microdilution (CLSI). As to conditions: Pseudomonas aeruginosa, PAO1, 20 h; read-out: Antibacterial activity (MIC) NB52019.
For assay [5], the system named is S. aureus NB01006-AVR005 (gyrA S84L, grlA S80F, grlB E471K). The assay is described as follows: microbe, parasite or virus in culture. As to conditions: Staphylococcus aureus, 20 h, read-out: Antibacterial activity (MIC) NB01006-AVR005.
Assay [6] relates to P. aeruginosa NB52023 (efflux deficient K1542, ΔmexX ΔmexB). Kind of assay: microbe, parasite or virus in culture. The conditions noted are these: Pseudomonas aeruginosa, 20 h, read-out: Antibacterial activity (MIC) NB52023.
In assay [7] the test system is E. coli ATCC 25922 (NB27001). The assay is described as follows: MIC, broth microdilution (CLSI). As to conditions: Escherichia coli, ATCC25922; E. coli ATCC 25922; 35° C., 20 hours; read-out: Antibacterial activity (MIC) NB27001.

Values after ≈ are worked out from the molar mass of the structure shown. Structures can show the parent of a compound that is named as a salt. A value given as a limit tells only on which side of the number the result lay.

As to `Cc1c(N2CC[C@H](O)C2)c(F)cc2c(OCCN(C)C)cc(=O)n(C3CC3)c12` [Example 55, (S)-1-cyclopropyl-4-(2-(dimethylamino)ethoxy)-6-fluoro-7-(3-hydroxypyrrolidin-1-yl)-8-methylquinolin-2(1H)-one], the MIC was 0.5 µg/mL (≈ 1.28 µM) in assay [1]; 0.125 µg/mL (≈ 0.321 µM) in assay [2]; 32 µg/mL (≈ 82.2 µM) in assay [3]; above 32 µg/mL in assay [4]; 0.5 µg/mL (≈ 1.28 µM) in assay [5]; 32 µg/mL (≈ 82.2 µM) in assay [6]. Besides, in assay [7], the MIC came out at 8 µg/mL (≈ 20.5 µM).
`Cc1c(N2CC[C@@H]([C@H](C)N)C2)c(F)cc2c(OCC(N)=O)cc(=O)n(C3CC3)c12` [Example 56, 2-((7-((R)-3-((S)-1-aminoethyl)pyrrolidin-1-yl)-1-cyclopropyl-6-fluoro-8-methyl-2-oxo-1,2-dihydroquinolin-4-yl)oxy)acetamide]: the MIC in assay [1] is 4 µg/mL (≈ 9.94 µM); in assay [2] it was 2 µg/mL (≈ 4.97 µM); in assay [3] it was above 32 µg/mL; in assay [4], above 32 µg/mL; in assay [5], 4 µg/mL (≈ 9.94 µM); in assay [6], 16 µg/mL (≈ 39.8 µM). In assay [7], the MIC turned out to be 32 µg/mL (≈ 79.5 µM).
With `Cc1c(N2CC[C@@H]([C@H](C)N)C2)c(F)cc2c(OCCCC#N)cc(=O)n(C3CC3)c12` [Example 57, 4-((7-((R)-3-((S)-1-aminoethyl)pyrrolidin-1-yl)-1-cyclopropyl-6-fluoro-8-methyl-2-oxo-1,2-dihydroquinolin-4-yl)oxy)butanenitrile], the MIC is 0.25 µg/mL (≈ 0.606 µM) in assay [1]; 0.25 µg/mL (≈ 0.606 µM) in assay [2]; above 32 µg/mL in assay [3]; above 32 µg/mL in assay [4]; 0.25 µg/mL (≈ 0.606 µM) in assay [5]; 16 µg/mL (≈ 38.8 µM) in assay [6]. Besides, the MIC in assay [7] stood at 32 µg/mL (≈ 77.6 µM).
With `Cc1c(N2CC[C@@H]([C@H](C)N)C2)c(F)cc2c(OCCC/C(N)=N\O)cc(=O)n(C3CC3)c12` [Example 58, 4-((7-((R)-3-((S)-1-aminoethyl)pyrrolidin-1-yl)-1-cyclopropyl-6-fluoro-8-methyl-2-oxo-1,2-dihydroquinolin-4-yl)oxy)-N′-hydroxybutanimidamide], the MIC in assay [1] was 4 µg/mL (≈ 8.98 µM); in assay [2], 1 µg/mL (≈ 2.24 µM); in assay [3], 32 µg/mL (≈ 71.8 µM); in assay [4], above 32 µg/mL; in assay [5], 2 µg/mL (≈ 4.49 µM); in assay [6] it was 32 µg/mL (≈ 71.8 µM). For the same compound, in assay [7], the MIC worked out at 32 µg/mL (≈ 71.8 µM).
For the compound `Cc1c(N2CC[C@@H]([C@H](C)N)C2)c(F)cc2c(OCCCC(=O)NO)cc(=O)n(C3CC3)c12` [Example 60, 4-((7-((R)-3-((S)-1-aminoethyl)pyrrolidin-1-yl)-1-cyclopropyl-6-fluoro-8-methyl-2-oxo-1,2-dihydroquinolin-4-yl)oxy)-N-hydroxybutanamide], the MIC in assay [1] was 8 µg/mL (≈ 17.9 µM); in assay [2], 1 µg/mL (≈ 2.24 µM); in assay [3], above 32 µg/mL; in assay [4] it was above 32 µg/mL; in assay [5], 4 µg/mL (≈ 8.96 µM); in assay [6] it was above 32 µg/mL. Also, the MIC in assay [7] came out at 32 µg/mL (≈ 71.7 µM).
On to `Cc1c(N2CC[C@@H]([C@H](C)N)C2)c(F)cc2c(OCCCC(=O)O)cc(=O)n(C3CC3)c12` [Example 61, 4-((7-((R)-3-((S)-1-aminoethyl)pyrrolidin-1-yl)-1-cyclopropyl-6-fluoro-8-methyl-2-oxo-1,2-dihydroquinolin-4-yl)oxy)butanoic acid], for which the MIC in assay [1] is above 32 µg/mL; in assay [2] it was above 32 µg/mL; in assay [3] it was above 32 µg/mL; in assay [4], 32 µg/mL (≈ 74.2 µM); in assay [5], above 32 µg/mL; in assay [6], above 32 µg/mL. The MIC in assay [7] was 32 µg/mL (≈ 74.2 µM).
On to `Cc1c(N2CC[C@@H]([C@H](C)N)C2)c(F)cc2c(OCCCc3n[nH]c(=O)o3)cc(=O)n(C3CC3)c12` [Example 65, 5-(3-((7-((R)-3-((S)-1-aminoethyl)pyrrolidin-1-yl)-1-cyclopropyl-6-fluoro-8-methyl-2-oxo-1,2-dihydroquinolin-4-yl)oxy)propyl)-1,3,4-oxadiazol-2(3H)-one], for which the MIC is 4 µg/mL (≈ 8.48 µM) in assay [1]; 4 µg/mL (≈ 8.48 µM) in assay [2]; above 32 µg/mL in assay [3]; above 32 µg/mL in assay [4]; 2 µg/mL (≈ 4.24 µM) in assay [5]; above 32 µg/mL in assay [6]. Further, the MIC in assay [7] amounted to 32 µg/mL (≈ 67.9 µM).
Turning to `Cc1c(N2CC[C@@H]([C@H](C)N)C2)c(F)cc2c(OCCNS(C)(=O)=O)cc(=O)n(C3CC3)c12` [Example 66, N-(2-((7-((R)-3-((S)-1-aminoethyl)pyrrolidin-1-yl)-1-cyclopropyl-6-fluoro-8-methyl-2-oxo-1,2-dihydroquinolin-4-yl)oxy)ethyl)methanesulfonamide], the MIC is 4 µg/mL (≈ 8.57 µM) in assay [1]; 2 µg/mL (≈ 4.29 µM) in assay [2]; above 32 µg/mL in assay [3]; above 32 µg/mL in assay [4]; 4 µg/mL (≈ 8.57 µM) in assay [5]; above 32 µg/mL in assay [6]. Moreover, in assay [7], the MIC worked out at 32 µg/mL (≈ 68.6 µM).
On to `COc1cc(=O)n(C2CC2)c2c(C)c(N3CC[C@@H]([C@H](C)N)C3)c(F)cc12` [Example 67, 7-((R)-3-((S)-1-aminoethyl)pyrrolidin-1-yl)-1-cyclopropyl-6-fluoro-4-methoxy-8-methylquinolin-2(1H)-one], for which the MIC came to 0.06 µg/mL (≈ 0.167 µM) in assay [1]; 0.06 µg/mL (≈ 0.167 µM) in assay [2]; 16 µg/mL (≈ 44.5 µM) in assay [3]; 32 µg/mL (≈ 89 µM) in assay [4]; 0.06 µg/mL (≈ 0.167 µM) in assay [5]; 8 µg/mL (≈ 22.3 µM) in assay [6]. Moreover, the MIC in assay [7] came out at 8 µg/mL (≈ 22.3 µM).
Take `COc1cc(=O)n(C2CC2)c2c(C)c(N3CC[C@@H]([C@H](C)N)C3)ccc12` [Example 68, 7-((R)-3-((S)-1-aminoethyl)pyrrolidin-1-yl)-1-cyclopropyl-4-methoxy-8-methylquinolin-2(1H)-one]: the MIC in assay [1] is 0.5 µg/mL (≈ 1.46 µM); in assay [2], 0.25 µg/mL (≈ 0.732 µM); in assay [3], above 32 µg/mL; in assay [4] it was above 32 µg/mL; in assay [5] it was 1 µg/mL (≈ 2.93 µM); in assay [6], above 32 µg/mL. Besides, the MIC in assay [7] amounted to 32 µg/mL (≈ 93.7 µM).
As to `COc1cc(=O)n(C2CC2)c2c(C)c(-c3ccc(N)nc3)ccc12` [Example 69, 7-(6-aminopyridin-3-yl)-1-cyclopropyl-4-methoxy-8-methylquinolin-2(1H)-one], the MIC in assay [1] was 2 µg/mL (≈ 6.22 µM); in assay [2], 0.5 µg/mL (≈ 1.56 µM); in assay [3], above 32 µg/mL; in assay [4], above 32 µg/mL; in assay [5] it was 2 µg/mL (≈ 6.22 µM); in assay [6], above 32 µg/mL. Also, the MIC in assay [7] is 32 µg/mL (≈ 99.6 µM).
`COc1c(C)c(=O)n(C2CC2)c2c(C)c(-c3ccc(N)nc3)ccc12` [Example 70, 7-(6-aminopyridin-3-yl)-1-cyclopropyl-4-methoxy-3,8-dimethylquinolin-2(1H)-one]: the MIC was 16 µg/mL (≈ 47.7 µM) in assay [1]; 2 µg/mL (≈ 5.96 µM) in assay [2]; above 32 µg/mL in assay [3]; 32 µg/mL (≈ 95.4 µM) in assay [4]; 4 µg/mL (≈ 11.9 µM) in assay [5]; above 32 µg/mL in assay [6]. The MIC in assay [7] was found to be 32 µg/mL (≈ 95.4 µM).
Take `Cc1c(N2CC[C@@H]([C@H](C)N)C2)ccc2c(OCc3ccccc3)cc(=O)n(C3CC3)c12` [Example 71, 7-((R)-3-((S)-1-aminoethyl)pyrrolidin-1-yl)-4-(benzyloxy)-1-cyclopropyl-8-methylquinolin-2(1H)-one TFA salt]: the MIC in assay [1] is 2 µg/mL; in assay [2], 6 µg/mL; in assay [3], above 32 µg/mL; in assay [4] it was above 32 µg/mL; in assay [5] it was 6 µg/mL; in assay [6], above 32 µg/mL. The MIC in assay [7] is 32 µg/mL.
On to `Cc1c(N2CC[C@@H]([C@H](C)N)C2)ccc2c(O)cc(=O)n(C3CC3)c12` [Example 72, 7-((R)-3-((S)-1-aminoethyl)pyrrolidin-1-yl)-1-cyclopropyl-4-hydroxy-8-methylquinolin-2(1H)-one TFA salt], for which the MIC in assay [1] was 16 µg/mL; in assay [2], 16 µg/mL; in assay [3], above 32 µg/mL; in assay [4], 32 µg/mL; in assay [5] it was 8 µg/mL; in assay [6] it was above 32 µg/mL. Further, the MIC in assay [7] was 32 µg/mL.
As to `Cc1c(-c2ccc(N)nc2)ccc2ccc(=O)n(C3CC3)c12` [Example 75, 7-(6-aminopyridin-3-yl)-1-cyclopropyl-8-methylquinolin-2(1H)-one], the MIC is 8 µg/mL (≈ 27.5 µM) in assay [1]; 0.5 µg/mL (≈ 1.72 µM) in assay [2]; above 32 µg/mL in assay [3]; above 32 µg/mL in assay [4]; 8 µg/mL (≈ 27.5 µM) in assay [5]; 32 µg/mL (≈ 110 µM) in assay [6]. For the same compound, in assay [7], the MIC came out at 32 µg/mL (≈ 110 µM).
Turning to `Cc1c(-c2ccc(N)nc2)ccc2cc(O)c(=O)n(C3CC3)c12` [Example 77, 7-(6-Aminopyridin-3-yl)-1-cyclopropyl-3-hydroxy-8-methylquinolin-2(1H)-one TFA salt], the MIC is 4 µg/mL in assay [1]; 0.5 µg/mL in assay [2]; above 32 µg/mL in assay [3]; above 32 µg/mL in assay [4]; 32 µg/mL in assay [5]; above 32 µg/mL in assay [6]. Besides, the MIC in assay [7] was 32 µg/mL.
With `COc1cc2ccc(-c3ccc(N)nc3)c(C)c2n(C2CC2)c1=O` [Example 78, 7-(6-Aminopyridin-3-yl)-1-cyclopropyl-3-methoxy-8-methylquinolin-2(1H)-one TFA salt], the MIC in assay [1] was 8 µg/mL; in assay [2], 1 µg/mL; in assay [3] it was above 32 µg/mL; in assay [4], above 32 µg/mL; in assay [5] it was 16 µg/mL; in assay [6] it was above 32 µg/mL. Besides, in assay [7], the MIC was 32 µg/mL.

The record behind these values is patent US10160726B2, “Quinolone derivatives as antibacterials” (priority 2014, dated 2018).
